Assays:
Format in all cases: cell-based, human
[1] = tested on: SK-MEL-28
In short: (§1)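 Five-dose testing in the National Cancer Institute cell screen covered 100 μM to 0.01 μM.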

[2] = tested on: 786-0
In short: as §1

[3] = tested on: SF-539
In short: as §1

[4] = tested on: OVCAR-5
In short: as §1

[5] = tested on: LOX IMVI
In short: (§2)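 Tested at five doses, 100 μM to 0.01 μM in 10-fold steps, in the NCI 60-cell-line panel; TGI responses used for COMPARE analysis.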

[6] = tested on: SNB-19
In short: as §2

[7] = tested on: HOP-92
In short: as §1

[8] = tested on: SN12C
In short: as §1

[9] = tested on: HOP-62
In short: as §2

[10] = tested on: A498
In short: as §1

[11] = tested on: NCI-H23
In short: as §1

COc1cc(C)c(-c2ccc(=O)c(OC)cc2C)c(OC)c1OC (single isomer, unassigned) [(aR)-iso-6]
> -4.00 Molar: Log10GI50 [1] | Log10LC50 [1] | Log10TGI [1] | Log10GI50 [2] | Log10LC50 [2] | Log10TGI [2] | Log10GI50 [3] | Log10LC50 [3] | Log10TGI [3] | Log10GI50 [4] | Log10LC50 [4] | Log10TGI [4] | Log10GI50 [5] | Log10LC50 [5] | Log10TGI [5] | Log10GI50 [6] | Log10LC50 [6] | Log10TGI [6] | Log10GI50 [7] | Log10LC50 [7] | Log10TGI [7] | Log10GI50 [8] | Log10LC50 [8] | Log10TGI [8] | Log10GI50 [9] | Log10LC50 [9] | Log10TGI [9] | Log10GI50 [10] | Log10LC50 [10] | Log10TGI [10] | Log10GI50 [11] | Log10LC50 [11] | Log10TGI [11]
